Assay results reported in publication PMC7041945, “Misfolded proteins bind and activate death receptor 5 to trigger apoptosis during unresolved endoplasmic reticulum stress” (eLife, 2020).
No end group written: not given here.

Key:
DR5L ECD [1] = biological target: T1, DR5L ECD (Homo sapiens, UniProt O14763); assay: Fluorescence quenching of AlexaFluor647-DR5L ECD; format: binding
T1 construct: Gp67 (glycoprotein) signal peptide (N); made in house; host or cells: SF21 insect cells (baculovirus, Bac-to-Bac)
T1 sequence (O14763 72-213): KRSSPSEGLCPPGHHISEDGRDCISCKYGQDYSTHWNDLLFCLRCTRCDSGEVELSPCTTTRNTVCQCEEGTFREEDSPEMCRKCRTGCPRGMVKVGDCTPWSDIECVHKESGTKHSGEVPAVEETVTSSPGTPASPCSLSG
Method: The pFastBac HTB constructs were recombined into bacmid DNA using the Bac-to-Bac baculovirus expression system according to manufacturer’s protocols (Life Technologies).
Recombinant DR5 and TNFR1 ECD were labeled with AlexaFluor647 NHS Ester (Succinimidyl Ester) (Life Technologies # A37573) in a 3:1 dye:protein molar ratio in 30 mM HEPES pH 7.2, 150 mM NaCl, 1% DMF overnight at 4°C protected from light. The labeled proteins were re-loaded onto a SuperDex200 10/300 GL column to remove the excess dye, yielding labeling efficiencies of 59% and 49% for DR5 ECD and TNFR1 ECD, respectively. […]
To set up reactions, the unlabeled peptide titration (10 μl each) was made from a two-fold dilution series of the highest peptide concentration assayed. […] Samples were incubated for 30 min at RT protected from light before measuring fluorescence.
Samples were then loaded by capillary action onto premium capillaries (Nanotemper Technologies, cat. #MO-K025). Fluorescence was measured on a Monolith NT.115 Instrument (NanoTemper Technologies, Germany) using the capillary scan function at 25°C.
The half-maximum binding constant (K1/2) and Hill coefficient were determined by fitting the data points on Prism 6.0 to the model equation: Y = Bmax*X^h/(K1/2^h + X^h), where Y is the % quenching, X is the concentration of peptide, Bmax is the maximum % quenching, and h is the Hill slope.

DR5L ECD [2] = biological target: T1, DR5L ECD; assay: Size exclusion chromatography of DR5 ECD and peptide complex; format: biochemical; details: 25 μM DR5L ECD; 100 μM fluorescein-conjugated peptide; overnight 4°C
Method: The specified concentration of protein and peptide were incubated overnight at 4°C. The following day, 200 ul of each sample was loaded onto a SuperDex200 10/300 GL column equilibrated with 30 mM HEPES pH 7.2, 150 mM NaCl at a flow rate of 0.5 ml/min. Fractions were collected in 1 ml aliquots.
For subsequent analysis of each fraction by SDS-PAGE, 1 ml fractions were concentrated to 50 μl using a 3 kDa MW cutoff and loaded onto a gel. The fluorescein-labeled peptide was visualized using the fluorescence detection mode on a Typhoon 9400 Variable Mode Imager (GE Healthcare). Protein was visualized by staining with Coomassie.

Sequence: FTWREQPEGGRDAISIFHEA [MPZ-ecto^Tyr→Glu]
- fluorescence quenching of AlexaFluor647-DR5L ECD (DR5L ECD [1]; increasing peptide, 200 nM ECD, N = 3): quenching was not observed
- co-elution / oligomerization of DR5 ECD by size exclusion (DR5L ECD [2]): did not co-migrate with or induce the oligomerization of DR5 ECD

Sequence: FTWRYQPEGGRDAISIFHYA [MPZ-ecto]
- Kd (DR5L ECD [1]; AlexaFluor647-DR5L ECD 200 nM, 20 mM HEPES pH 7.2, 100 mM KOAc, 0.1% Tween-20, 30 min RT, read at 25°C, N = 3, ± SD, read-out: K1/2 (half-maximum binding constant, apparent binding affinity)): 109 ± 11 µM
